These results are taken from PubChem BioAssay (NCI).

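Values below derive from 48-hour exposures of cells grown in 96-well plates, with endpoints linearly interpolated between the two concentrations bracketing the appropriate inhibition level. At the GI50, growth is halved. TGI marks complete inhibition of growth.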

Test in all cases: NCI tumour cell line growth inhibition, 48 h
The subject of assay [1] is HCT-116 colon.
Assay [2] concerns SNB-19 CNS.
Assay [3] relates to UO-31 renal.
Assay [4] relates to MOLT-4 leukemia.
Assay [5] deals with MDA-MB-435.
Assay [6] has as its system SK-MEL-2 melanoma.
Assay [7] relates to NCI-H460 lung.
Assay [8] has as its system SN12C renal.
For assay [9], the system named is DU-145 prostate.
Assay [10] concerns HL-60(TB) leukemia.

In the case of `CC[CH2][Sn]([Cl])([Cl])[CH2]CC`, the GI50 in [1] is 13.1 µM; in [2], 13.2 µM; in assay [3], 4.47 µM; in assay [4] it was 5.35 µM; in [5], 12.5 µM; in assay [6], 10.8 µM. The GI50 in assay [7] is 17.2 µM; in assay [8], 7.08 µM; in [9] it was 14.5 µM; in assay [10], 2.94 µM. The TGI in assay [1] is 25.8 µM; in [2], 25.9 µM; in [3], 19.5 µM; in assay [4], greater than 100 µM; in [5], 26.9 µM; in assay [6], 25.6 µM. The TGI is 34.3 µM in [7], 20.2 µM in [8], 28.6 µM in assay [9] and greater than 100 µM in assay [10].

For `CC(=O)OC(C)(C)N=Nc1ccc(Br)cc1`, the TGI was greater than 100 µM in [1]; greater than 100 µM in assay [2]; 15.9 µM in [3]; greater than 90.3 µM in [4]; greater than 100 µM in assay [5]; greater than 100 µM in assay [6]. Further, the TGI was 26 µM in assay [7], greater than 100 µM in [8], greater than 100 µM in assay [9] and 28 µM in assay [10].

Regarding `CCOC(=O)C(=O)N=Nc1nc2c(O)c3ccccc3c(O)c2s1`, the TGI is 5.96 µM in assay [1]; 28.9 µM in assay [2]; 6.12 µM in assay [3]; greater than 100 µM in assay [4]; 3.15 µM in assay [5]; 8.98 µM in [6]. In addition, the TGI was 26.7 µM in assay [7], 3.46 µM in assay [8], 31.6 µM in assay [9] and greater than 100 µM in assay [10].

For `CC[C@@H](C(=O)[C@@H](C)[C@@H](O)[C@H](C)[C@@H]1O[C@@H]([C@@H](CC)C(=O)O)CC[C@@H]1C)[C@H]1OC2(C=C[C@@H](O)[C@]3(CC[C@@](C)([C@H]4CC[C@](O)(CC)[C@H](C)O4)O3)O2)[C@H](C)C[C@@H]1C` (some centres undefined), the GI50 was 0.359 µM in assay [1]; 0.577 µM in assay [2]; 1.27 µM in assay [3]; 0.726 µM in [4]; 0.568 µM in assay [5]; 0.622 µM in assay [6]. The GI50 is 0.324 µM in assay [7], 0.14 µM in assay [8], 1.58 µM in assay [9] and 0.0894 µM in assay [10]. The TGI was 14.4 µM in assay [1]; greater than 14.2 µM in assay [2]; greater than 41.4 µM in assay [3]; 2.5 µM in assay [4]; 1.51 µM in assay [5]; 2 µM in [6]. For the same compound, the TGI in assay [7] is 7.79 µM; in assay [8], greater than 50 µM; in [9], greater than 50 µM; in [10], 0.316 µM.

For `Cc1nc(/N=C(\N)NC(=O)Nc2ccccc2Cl)sc1C`, the GI50 was 0.402 µM in [1]; 0.462 µM in [2]; 0.857 µM in assay [3]; 0.492 µM in [4]; 0.0868 µM in assay [5]; 0.571 µM in [6]. The GI50 in [7] was 0.367 µM; in assay [8] it was 0.739 µM; in assay [9], 0.621 µM; in assay [10] it was 0.331 µM. The TGI in assay [2] is 12.4 µM; in assay [3], 6.49 µM; in [4] it was greater than 100 µM; in [5], 0.466 µM; in [6], 16.4 µM; in assay [7], 1.62 µM. In addition, the TGI is greater than 100 µM in assay [8], 5.85 µM in [9] and 28.9 µM in assay [10].

Consider `COc1ccc(/C=C/c2cc(N3CCOCC3)c3cc(F)c(F)cc3n2)cc1OC`, for which the GI50 in [1] was 0.414 µM; in assay [2], 1.11 µM; in assay [3], 0.347 µM; in assay [4], 0.624 µM; in [5] it was 1.54 µM; in [6], 2.39 µM. Further, the GI50 was 0.526 µM in assay [7], 1.68 µM in assay [8], 1.58 µM in assay [9] and 0.435 µM in assay [10]. In addition, the TGI in assay [1] turned out to be 10 µM; in assay [2] it was 12.4 µM; in assay [3], 10.3 µM; in assay [4] it was 11 µM; in assay [5], 12.8 µM; in [6], 11.5 µM. Also, the TGI in assay [7] is 3.72 µM; in assay [8], 14.1 µM; in assay [9], 11.8 µM; in assay [10], 5.14 µM.

Turning to `O=C1c2ccccc2-c2c1c1ccccc1c(=O)n2CCCN1CCN(CCCn2c3c(c4ccccc4c2=O)C(=O)c2ccccc2-3)CC1`, the GI50 in assay [1] was 35.3 µM; in assay [2], 99.4 µM; in assay [3], greater than 45.7 µM; in [4], 0.325 µM; in assay [5] it was greater than 100 µM; in assay [6], greater than 100 µM. For the same compound, the GI50 in [7] was greater than 68 µM; in assay [8], greater than 39.2 µM; in assay [9], 23.7 µM; in assay [10] it was 79.7 µM. Besides, the TGI in assay [1] was greater than 100 µM; in [2], greater than 100 µM; in [3] it was greater than 100 µM; in assay [4], 21.9 µM; in assay [5], greater than 100 µM; in assay [6], greater than 100 µM. In addition, the TGI in [7] was greater than 100 µM; in [8], greater than 92 µM; in assay [9], greater than 86.4 µM; in [10] it was greater than 100 µM.

In the case of `O=S1(=O)CS(=O)(=O)OCCCO1`, the TGI in [1], in [2], in assay [3], in assay [4], in assay [5] and in [6] was greater than 100 µM in each case. Moreover, the TGI in assay [7], in assay [8], in assay [9] and in assay [10] was greater than 100 µM in each case.
